From patent US20100087399A1 (priority 2007, published 2010)
Several values for one entry are separate records, joined by “and”; a condition that tells them apart may be missing. Equal values may be shown once.

How the values were obtained:
[1] = tested on: NF κB; assay: NF κB activation caused by chemotherapeutic agent in OVCAR-3 cells; assay type: cell-based, human; parameters: level of active NF κB (as percents of control) in the absence of CMA: concentration or dose not given beside the values; conditions: for level of active NF κB (as percents of control) in the presence of CMA: its salt or ester 1 × 10^−12 M
Description: (§1) The level of active NF κB in cell extract was measured with StressXpress NF κB, p50 ELISA Kit (StressGen, cat. No EKS-445) and luminescent spectrophotometer SM 2203 (Solar, Belarus).
The experiments were performed as described in Example 1. The human ovarian carcinoma cell lines OVCAR-3 was used. The cells were incubated at 37° C. in RPMI 1640 medium supplemented with 10% embryonic calf serum. […] Corresponding chemical agent or the vehicle (control) was added to the culture medium simultaneously with CMA, its salt or ester (1×10^−12 M). The cells were separated by centrifugation. The level of active NF κB was assessed in nuclear lysate.

[2] = tested on: NF κB; assay: Level of active NF κB in cancer cells of ascitic fluid of SK-OV-3 tumor-bearing nude mice; assay type: in vivo; conditions: 0 mg/kg CMA
Description: as §1
To study the ability of different amounts of CMA to inhibit the NF κB activity, tumor growth and to increase the survival rate in combination with a chemotherapeutic agent, BALB/c female nude mice (6 to 8 weeks of age) were intraperitoneally injected with SK-OV-3 cells (1×10^7 cells/0.5 ml media/mouse). The all mice were divided into the several groups of animals (32 animals per group) which were treated with different doses of CMA, its salts or its ester. All mice were injected also ether with vehicle (diluent) or with chemotherapeutic agent or with or combinations of chemotherapeutic agent. Some groups were injected additionally with one or other aromatase inhibior, along with chemotherapeutic agent. Cisplatin (CP) was administered at dose 5 mg/kg intraperitoneally once weekly for the first 3 weeks; Doxorubicin (Dox) was given 8 mg/kg intravenously on days 0 and 7; Paclitaxel (Pcl) was injected intravenously at dose 10 mg/kg body weight thrice weekly, on alternate days for 4 weeks; 10 mg/kg/day. Toremifen was administered per os at dose 10 mg/kg/day in starch gel. Anastozole was injected subcutaneously with 5 μg of […] in 0.1 mL of PBS. CMA was administered once a day on each second day.
Also, the day of 50% survival rate was scored for other 16 animals in each group group. The serum alpha interferon (alpha IFN) level was measured 2 hours after first administration of CMA, its salts or it ester. Mouse IFN-alpha was measured in serum was detected (in pg/ml) using the enzyme-linked immunosorbent assay kit purchased from PBL Biomedical Laboratories (USA, Piscataway, N.J.).

[3] = tested on: ovarian cancer; assay: Clinical case reports of combined therapy of ovarian cancer (Examples 7-9); assay type: in vivo, human; conditions: Example 7: stage III patient; 2 courses of cisplatin alone
[4] = tested on: SK-OV-3 cells; assay: Survival of nude mice intraperitoneally injected with SK-OV-3 cells; assay type: in vivo; conditions: 0 mg/kg CMA
[5] = tested on: alpha interferon; assay: Serum alpha interferon in SK-OV-3 tumor-bearing nude mice (ELISA); assay type: in vivo; conditions: 0 mg/kg CMA
[6] = tested on: NF κB; assay: Level of active NF κB in primary human ovarian cancer cells from ascitic fluid (StressXpress NF κB p50 ELISA); assay type: cell-based; conditions: 8 hours
[7] = tested on: ovarian cancer; conditions: intraperitoneal alpha-interferon in combination with carboplatinum; cited from earlier work
[8] = tested on: ovarian cancer; conditions: gamma-interferon added to cisplatinum+cyclophosphamide; cited from earlier work

N.N.[Cl][Pt][Cl] [Cisplatin, cisplatin]
level of active NF κB (as percents of control) in the absence of CMA ([1]; Cisplatin alone): 117% and 121% and 120% and 119% and 118% and 125% and 122%
level of NF kB (mean) ([2]; Cisplatin (CP) alone): 380 percent from the control and 356 percent from the control and 420 percent from the control
clinical outcome [3]: No therapy effects were observed
day when 50% of animals in the group were still alive ([4]; Cisplatin (CP) alone): 34 days and 44 days and 42 days
interferon level (mean) ([5]; Cisplatin (CP) alone): 4 pg/mL and 2 pg/mL and 3 pg/mL

O=P1(N(CCCl)CCCl)NCCCO1 (centres unmarked) [Cyclophosphamide, cyclophosphamide]
level of active NF κB (as percents of control) in the absence of CMA ([1]; Cyclophosphamide alone): 221% and 217% and 210% and 214%

COc1cccc2c1C(=O)c1c(O)c3c(c(O)c1C2=O)C[C@@](O)(C(=O)CO)C[C@@H]3O[C@H]1C[C@H](N)[C@H](O)[C@H](C)O1 [Doxorubicin, doxorubicin]
level of active NF κB (as percents of control) in the absence of CMA ([1]; Doxorubicin alone): 524% and 538% and 550% and 497% and 562% and 540% and 531%
level of NF kB (mean) ([2]; Doxorubicin (Dox) alone): 450 percent from the control and 470 percent from the control and 430 percent from the control
day when 50% of animals in the group were still alive ([4]; Doxorubicin (Dox) alone): 36 days and 37 days and 43 days
interferon level (mean) ([5]; Doxorubicin (Dox) alone): 3 pg/mL and 4 pg/mL and 5 pg/mL

CC(=O)O[C@H]1C(=O)[C@@]2(C)[C@H]([C@H](OC(=O)c3ccccc3)[C@]3(O)C[C@H](OC(=O)[C@H](O)[C@@H](NC(=O)c4ccccc4)c4ccccc4)C(C)=C1C3(C)C)[C@]1(OC(C)=O)CO[C@@H]1C[C@@H]2O [Paclitaxel, paclitaxel, reference compound]
level of NF kB (mean) ([2]; Paclitaxel (Pcl) alone): 420 percent from the control and 411 percent from the control and 442 percent from the control
day when 50% of animals in the group were still alive ([4]; Paclitaxel (Pcl) alone): 41 days and 40 days and 38 days
interferon level (mean) ([5]; Paclitaxel (Pcl) alone): 8 pg/mL and 6 pg/mL and 5 pg/mL

CCCOC(=O)Cn1c2ccccc2c(=O)c2ccccc21 [PropCMA]
level of active NF κB (as percents of control) in the presence of CMA ([1]; 5-FU + CMA): 86%
level of active NF κB (as percents of control) ([1]; CMA, its salt or ester 1 × 10^−12 M + Vechicle): 84%
level of active NF κB (as percents of control) in the presence of CMA ([1]; Cisplatin + CMA): 66%
level of active NF κB (as percents of control) in the presence of CMA ([1]; Cyclophosphamide + CMA): 95%
level of active NF κB (as percents of control) in the presence of CMA ([1]; Doxorubicin + CMA): 178%
active NF κB (in percents of control) ([6]; 1 × 10^−10 M, Patient 1): 32%/10
active NF κB (in percents of control) ([6]; 1 × 10^−10 M, Patient 2): 31%/20
active NF κB (in percents of control) ([6]; 1 × 10^−10 M, Patient 3): 36%/20
active NF κB (in percents of control) ([6]; 1 × 10^−12 M, Patient 1): 68%/10
active NF κB (in percents of control) ([6]; 1 × 10^−12 M, Patient 2): 59%/20
active NF κB (in percents of control) ([6]; 1 × 10^−12 M, Patient 3): 64%/20
active NF κB (in percents of control) ([6]; 1 × 10^−13 M, Patient 1): 89%/0
active NF κB (in percents of control) ([6]; 1 × 10^−13 M, Patient 2): 91%/0
active NF κB (in percents of control) ([6]; 1 × 10^−13 M, Patient 3): 81%/0

alpha-interferon
efficacy in respect of ovarian cancer [7]: did not prove any efficacy

gamma-interferon: cytokine immunomodulator with antiviral and antitumor activity
number of patients who had no progression within the 3 year period [8]: 51%
